From ChEMBL document CHEMBL4828744, “Design, synthesis and biological evaluation of pyridinylmethylenepiperidine derivatives as potent 5-HT1F receptor agonists for migraine therapy” (Eur J Med Chem, 2021)
Activity calls are given as the source filed them. The calls are words filed in the database; no cut-off is given here.

Assays:
[1] = biological target: T1, 5-hydroxytryptamine receptor 1F (Homo sapiens, UniProt P30939); assay: Agonist activity at 5HT1F receptor (unknown origin) expressed in HEK293 cells measured after 60 mins by Fluo-4AM dye based FLIPR assay; assay type: functional, cell-based; settings: read-out: IC50 (the source's name)
T1 sequence (P30939 whole entry): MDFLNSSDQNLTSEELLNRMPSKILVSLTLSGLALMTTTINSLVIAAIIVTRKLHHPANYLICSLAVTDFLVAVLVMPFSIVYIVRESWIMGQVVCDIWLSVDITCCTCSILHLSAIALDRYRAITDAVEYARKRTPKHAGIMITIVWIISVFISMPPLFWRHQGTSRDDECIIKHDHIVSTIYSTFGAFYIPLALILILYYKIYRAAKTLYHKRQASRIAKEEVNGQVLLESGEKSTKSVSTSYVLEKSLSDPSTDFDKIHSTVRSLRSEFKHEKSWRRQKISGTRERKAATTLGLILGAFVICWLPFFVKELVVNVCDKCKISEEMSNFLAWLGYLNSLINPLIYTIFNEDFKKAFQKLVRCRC

[2] = biological target: T2, 5-hydroxytryptamine receptor 1F (Homo sapiens) (UniProt P30939); assay: Potency index, ratio of lasmiditan EC50 to test compound EC50 for agonist activity at 5HT1F receptor (unknown origin) expressed in HEK293 cells measured after 60 mins by Fluo-4AM dye based FLIPR assay; assay type: functional, cell-based
T2 sequence (whole entry): T1 sequence (P30939 whole entry)

[3] = Volume of distribution at steady state in Sprague-Dawley rat at 1 mg/kg, iv measured for 24 hrs by LC-MS/MS analysis; assay type: ADME, organism-based; settings: in vivo, read-out: Vdss
[4] = AUC(0 to t) in Sprague-Dawley rat at 5 mg/kg, ig measured for 24 hrs by LC-MS/MS analysis; assay type: ADME, organism-based; design: time 24 hrs, dose 5 mg/kg; settings: in vivo, po
[5] = Clearance in Sprague-Dawley rat at 1 mg/kg, iv measured for 24 hrs by LC-MS/MS analysis; assay type: ADME, organism-based; settings: in vivo
[6] = Half life in Sprague-Dawley rat at 5 mg/kg, ig measured for 24 hrs by LC-MS/MS analysis; assay type: ADME, organism-based; settings: in vivo, po
[7] = Bioavailability in Sprague-Dawley rat at 5 mg/kg, ig measured for 24 hrs by LC-MS/MS analysis; assay type: ADME, organism-based; settings: in vivo, po
[8] = Half life in Sprague-Dawley rat at 1 mg/kg, iv measured for 24 hrs by LC-MS/MS analysis; assay type: ADME, organism-based; settings: in vivo
[9] = Cmax in Sprague-Dawley rat at 5 mg/kg, ig measured for 24 hrs by LC-MS/MS analysis; assay type: ADME, organism-based; design: route intragastric, time 24 hrs, dose 5 mg/kg; settings: in vivo, po
[10] = AUC(0 to t) in Sprague-Dawley rat at 1 mg/kg, iv measured for 24 hrs by LC-MS/MS analysis; assay type: ADME, organism-based; design: time 24 hrs, dose 1 mg/kg; settings: in vivo
[11] = Cmax in Sprague-Dawley rat at 1 mg/kg, iv measured for 24 hrs by LC-MS/MS analysis; assay type: ADME, organism-based; design: route intravenous, dose 1 mg/kg, time 24 hrs; settings: in vivo
[12] = Toxicity in NewZealand rabbit Saphenous vein rings assessed as induction of vasoconstriction at 1 to 100 uM; assay type: tissue-based, Oryctolagus cuniculus; settings: dose 1-100 µM
Rattus norvegicus [13] = assay: Antimigraine activity against electrical stimulation of trigeminal ganglion migraine Wistar rat model assessed as reduction in c-Fos-positive cells at 10 ug/kg, po measured after 60 mins by confocal fluorescence microscopic analysis; assay type: functional, organism-based; settings: dose 10.0 µg/kg
Rattus norvegicus [14] = assay: Antimigraine activity against electrical stimulation of trigeminal ganglion migraine Wistar rat model assessed as reduction in dural plasma protein extravasation at 0.01 ug/kg, po measured after 45 mins by confocal fluorescence microscopic analysis; assay type: functional, organism-based; settings: dose 0.01 µg/kg
[15] = Toxicity in NewZealand rabbit Saphenous vein rings assessed as induction of vasoconstriction at 0.01 to 100 uM; assay type: tissue-based, Oryctolagus cuniculus; settings: dose 0.01-100 µM

| SMILES | EC50 [1] [nM] | Ratio EC50 [2] | Vd [3] [L/kg] | AUC(0-t) at 24 h [4] [ng·h/mL] | clearance [5] [mL/min/kg] | half-life [6] [h] | bioavailability [7] [%] | half-life [8] [h] | Cmax [9] [ng/mL] | AUC(0-t) at 24 h [10] [ng·h/mL] | Cmax [11] [ng/mL] | Activity [12] | Activity (Rattus norvegicus [13]) | Activity (Rattus norvegicus [14]) | Activity [15] |
| --- | --- | --- | --- | --- | --- | --- | --- | --- | --- | --- | --- | --- | --- | --- | --- |
| CN1CCC(=C(F)c2cccc(NC(=O)c3ccc(F)cc3F)n2)CC1 | 4.67 | 3 | 17.7 | 44.6 | 229 | 0.824 | 12.9 | 1.05 | 9.71 | 70.4 | 74.4 |  |  |  |  |
| CN1CCC(=C(F)c2cccc(NC(=O)c3ccc(Cl)cn3)n2)CC1 | 161 |  |  |  |  |  |  |  |  |  |  |  |  |  |  |
| CN1CCC(=C(F)c2cccc(NC(=O)c3ccc(Cl)cc3F)n2)CC1 | 23.4 | 3 | 20.1 | 105 | 178 | 1.68 | 26.2 | 1.42 | 23.2 | 90.5 | 72.2 |  |  |  |  |
| CN1CCC(=C(F)c2cccc(NC(=O)c3ccc(F)cc3)n2)CC1 | 6.36 | 3 | 17.3 | 157 | 156 | 1.41 | 32.5 | 1.37 | 34.1 | 104 | 75.3 |  |  |  |  |
| O=C(Nc1cccc(C(F)=C2CCN(C3CC3)CC2)n1)c1c(F)cc(F)cc1F | 570 |  |  |  |  |  |  |  |  |  |  |  |  |  |  |
| CNS(=O)(=O)Cc1ccc2[nH]cc(CCN(C)C)c2c1 [SUMATRIPTAN] |  |  |  |  |  |  |  |  |  |  |  | Toxic |  |  |  |
| O=C(Nc1cccc(C(F)=C2CCN(C(F)(F)F)CC2)n1)c1c(F)cc(F)cc1F | > 10000 |  |  |  |  |  |  |  |  |  |  |  |  |  |  |
| CN1CCC(C(=O)c2cccc(NC(=O)c3c(F)cc(F)cc3F)n2)CC1 [LASMIDITAN] |  |  | 32.2 | 386 | 127 | 3.38 | 63.2 | 3.12 | 90.9 | 105 | 28.1 |  | Active | Active | Non-Toxic |
| CCN1CCC(=C(F)c2cccc(NC(=O)c3c(F)cc(F)cc3F)n2)CC1 | 178 |  |  |  |  |  |  |  |  |  |  |  |  |  |  |
| CN1CCC(=C(F)c2cccc(NC(=O)c3ccc(F)cn3)n2)CC1 | 24.3 |  | 11 | 121 | 159 | 1.24 | 23.7 | 0.924 | 34.7 | 103 | 94.9 |  |  |  |  |
| CN1CCC(=C(F)c2cccc(NC(=O)c3ccc(Cl)cc3)n2)CC1 | 29.3 | 3 | 20.3 | 151 | 180 | 2.41 | 39 | 1.6 | 35.7 | 89.4 | 61 |  |  |  |  |
| O=C(Nc1cccc(C(F)=C2CCN(C(F)F)CC2)n1)c1c(F)cc(F)cc1F | 813 |  |  |  |  |  |  |  |  |  |  |  |  |  |  |
